Measurements taken from ChEMBL document CHEMBL1201862, “PubChem BioAssay data set” (2004).
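Compound exposure: 48 hours, 5 concentrations, 96-well plates. Here, GI50 denotes the concentration required for 50% inhibition of growth.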 Activity calls are given as the source filed them. Rule as the data show it: active = GI50 up to about 1.1 µM and inactive = higher.

Key:
Assay in all cases: NCI-60 cell line screen, 48 h
MDA-MB-231 = test system: MDA-MB-231
RXF 393 = test system: RXF 393
NCI/ADR-RES = test system: NCI/ADR-RES
DU-145 = test system: DU-145
COLO 205 = test system: COLO 205
HOP-62 = test system: HOP-62
HCT-15 = test system: HCT-15
A549 = test system: A549
BT-549 = test system: BT-549
UO-31 = test system: UO-31
HCC 2998 = test system: HCC 2998
HOP-92 = test system: HOP-92
MDA-MB-435 = test system: MDA-MB-435
Hs-578T = test system: Hs-578T
MDA-N = test system: MDA-N
OVCAR-4 = test system: OVCAR-4
MCF7 = test system: MCF7
PC-3 = test system: PC-3
T47D = test system: T47D

Measured: GI50

COc1ccc(C(C2=C(O)COC2=O)c2cc3c(cc2O)OCO3)cc1OC (stereo not given)
inactive: MDA-MB-231 > 100 µM | RXF 393 > 100 µM | NCI/ADR-RES > 100 µM | DU-145 > 100 µM | COLO 205 > 100 µM | HOP-62 > 100 µM | A549 > 100 µM | BT-549 > 100 µM | UO-31 > 100 µM | HCC 2998 > 100 µM | HOP-92 > 100 µM | MDA-MB-435 > 100 µM | Hs-578T > 100 µM | MDA-N > 100 µM | OVCAR-4 > 100 µM | MCF7 > 100 µM | PC-3 > 100 µM
> 100 µM: HCT-15

O=C(CCN1CCN2c3ccccc3CCC2C1)c1ccc(F)cc1 (stereo not given)
inactive: MDA-MB-231 37.7 µM | RXF 393 20.6 µM | NCI/ADR-RES 36 µM | DU-145 30.1 µM | COLO 205 22 µM | HOP-62 23.8 µM | A549 > 100 µM | T47D 20 µM | BT-549 25.1 µM | UO-31 17.6 µM | HOP-92 33.9 µM | MDA-MB-435 24 µM | Hs-578T 35.6 µM | OVCAR-4 20 µM | MCF7 19.8 µM | PC-3 42.8 µM
20.8 µM: HCT-15

COC(=O)C1CCCN1C(=O)OC(C)(C)C (stereo not given)
inactive: MDA-MB-231 > 100 µM | RXF 393 > 100 µM | NCI/ADR-RES > 100 µM | DU-145 > 100 µM | COLO 205 > 100 µM | HOP-62 > 100 µM | A549 > 100 µM | T47D > 100 µM | BT-549 > 100 µM | UO-31 > 100 µM | HCC 2998 > 100 µM | MDA-MB-435 > 100 µM | MDA-N > 100 µM | OVCAR-4 > 100 µM | MCF7 > 100 µM | PC-3 > 100 µM
> 100 µM: HCT-15

CCN(CC(=O)O)C(=O)c1cccnc1
inactive: MDA-MB-231 > 100 µM | RXF 393 > 100 µM | NCI/ADR-RES > 100 µM | DU-145 > 100 µM | HOP-62 > 100 µM | A549 > 100 µM | T47D > 100 µM | BT-549 > 100 µM | UO-31 > 100 µM | HCC 2998 > 100 µM | HOP-92 > 100 µM | MDA-MB-435 > 100 µM | Hs-578T > 100 µM | MDA-N > 100 µM | OVCAR-4 > 100 µM | PC-3 > 100 µM
> 100 µM: HCT-15

COC1CC(OC2CCC3(C)C(=CCC4C3C(OC(C)=O)C(OC(=O)CC(C)C)C3(C)C(C(C)=O)CCC43O)C2)OC(C)C1OC1CC(OC)C(OC2CC(OC)C(OC3OC(C)C(OC4OC(CO)C(O)C(O)C4O)C(OC)C3O)C(C)O2)C(C)O1 (stereo not given)
inactive: MDA-MB-231 > 75 µM | NCI/ADR-RES > 75 µM | DU-145 > 75 µM | COLO 205 > 75 µM | HOP-62 11.6 µM | A549 > 75 µM | T47D > 75 µM | BT-549 > 75 µM | UO-31 > 75 µM | HCC 2998 > 75 µM | HOP-92 > 75 µM | MDA-MB-435 > 75 µM | Hs-578T > 75 µM | MDA-N > 75 µM | OVCAR-4 > 75 µM | MCF7 > 75 µM | PC-3 > 75 µM
> 75 µM: HCT-15

Cc1cc2c(cc1C(=O)CCC(=O)O)CC1(C2)Cc2cc(C)c(C(=O)CCC(=O)O)cc2C1
> 100 µM: HCT-15
inactive: MDA-MB-231 > 100 µM | RXF 393 > 100 µM | NCI/ADR-RES > 100 µM | DU-145 > 100 µM | COLO 205 > 100 µM | HOP-62 > 100 µM | A549 > 100 µM | T47D > 100 µM | UO-31 > 100 µM | HCC 2998 > 100 µM | HOP-92 > 100 µM | MDA-MB-435 > 100 µM | Hs-578T > 100 µM | MDA-N > 100 µM | OVCAR-4 > 100 µM | MCF7 > 100 µM | PC-3 > 100 µM
